pIC50: −log10 of the molar value. Values after ≈ are worked out from the molar mass of the structure shown. Where a name gives a salt, the structure may show the parent alone. Read-outs that look alike come from different tables or passages of the source.
Experiments:
[1] = test system: N. gonorrhoeae ATCC 49226; test: Test for evaluating antibacterial activity (N. gonorrhoeae), broth microdilution MIC; type: cell-based; conditions: Neisseria gonorrhoeae, ATCC49226; 35° C., 24 hours, gonococcal broth
Outline: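 Broth microdilution in gonococcal broth with 1% supplement C, inoculum from overnight chocolate II agar culture at McFarland 0.5 diluted 5-fold.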

E. coli DNA gyrase = target: T1, E. coli DNA gyrase (Escherichia coli, UniProt P0AES6); test: Test for evaluating the activity of inhibiting E. coli DNA gyrase enzyme (Method 1, supercoiling, Inspiralis enzyme); type: biochemical
T1 construct: made in house; host or cells: E. coli BL21 (DE3)
Protocol: Test Example 1-1 Test for Evaluating the Activity of Inhibiting E. coli DNA Gyrase Enzyme (Method 1)
The enzymatic activity of E. coli DNA gyrase was measured by a method comprising reacting DNA gyrase and its substrate, relaxed pBR322 (Inspiralis), in the presence of ATP and detecting the post-reaction supercoiled pBR322/relaxed pBR322 ratio with H19 (Profoldin).
Specifically, to 1 ng/μL of relaxed pBR322, E. coli DNA gyrase enzyme (Inspiralis) was added at a final concentration of 0.006 U/μL and the mixture was incubated for 60 minutes at room temperature. This reaction was carried out in 20 mmol/L tris-HCl buffered solution (pH 8.0) comprising 0.5 mmol/L ATP, 0.005% bridge 35, 35 mmol/L ammonium acetate, 8 mmol/L magnesium chloride, 4.6% glycerol, and 1 mmol/L dithiothreitol. To the reaction mixture, H19 was added to bring the reaction to an end; thereafter, the supercoiled pBR322/relaxed pBR322 ratio was detected at excitation wavelength/emission wavelength=485 nm/535 nm. An inhibition curve was obtained by allowing the analyte compound to be present at varying concentrations during the reaction described above. […] The test results of interest are shown in [Table 20-1] and [Table 20-2].

E. Coli ATCC 25922 = test: Test for evaluating antibacterial activity (E. coli), broth microdilution MIC; type: cell-based; conditions: Escherichia coli, ATCC25922; 35° C., 18 hours, cation-adjusted Mueller-Hinton medium
Outline: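 Broth microdilution per modified CLSI method in cation-adjusted Mueller-Hinton medium. Inoculum from overnight heart infusion agar growth, McFarland 0.5 suspension diluted 10-fold; incubation 35° C for 18 hours. MIC taken as lowest drug concentration with no visible growth.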

[2] = Method 1, read-out: E. Coli Gyrase supercoiling IC50

Structure (SMILES): CNc1cccc2cc(C(=O)NC3CCN(c4ncc(C(=O)O)s4)CC3)c(=O)[nH]c12 [Example 3, 2-(4-{[8-(methylamino)-2-oxo-1,2-dihydroquinoline-3-carbonyl]amino}piperidine-1-yl)-1,3-thiazole-5-carboxylic acid]
- MIC [1]: > 4 µg/mL
- pIC50 (E. coli DNA gyrase; [2]): 6.91
- MIC (E. Coli ATCC 25922): > 64 µg/mL

Structure (SMILES): CNc1cccc2cc(C(=O)Nc3ccccc3CN(C)C3CCCCC3)c(=O)[nH]c12 [Example 7, N-(2-[[Cyclohexyl(methyl)amino]methyl]phenyl)-8-(methylamino)-2-oxo-1,2-dihydroquinoline-3-carboxamide]
- MIC [1]: > 4 µg/mL
- pIC50 (E. coli DNA gyrase; [2]): 8.47
- MIC (E. Coli ATCC 25922): > 32 µg/mL

Structure (SMILES): CNc1cccc2cc(C(=O)NCc3ccc(C(=O)O)cc3C)c(=O)[nH]c12 [Example 8, 3-methyl-4-({[8-(methylamino)-2-oxo-1,2-dihydroquinoline-3-carbonyl]amino}methyl)benzoic acid]
- MIC [1]: 4 µg/mL (≈ 10.9 µM)
- pIC50 (E. coli DNA gyrase; [2]): 7.52
- MIC (E. Coli ATCC 25922): > 64 µg/mL

Structure (SMILES): CNc1cccc2cc(C(=O)NCc3noc(=O)[nH]3)c(=O)[nH]c12 [Example 14, 8-(methylamino)-2-oxo-N-[(5-oxo-4,5-dihydro-1,2,4-oxadiazole-3-yl)methyl]-1,2-dihydroquinoline-3-carboxamide]
- MIC [1]: > 4 µg/mL
- pIC50 (E. coli DNA gyrase; [2]): 4.45

Structure (SMILES): CNc1cccc2cc(C(=O)Nc3cccc(=O)[nH]3)c(=O)[nH]c12 [Example 16, 8-(methylamino)-2-oxo-N-(6-oxo-1,6-dihydro-pyridine-2-yl)-1,2-dihydroquinoline-3-carboxamide]
- MIC [1]: > 4 µg/mL
- pIC50 (E. coli DNA gyrase; [2]): 6.88
- MIC (E. Coli ATCC 25922): > 64 µg/mL

Structure (SMILES): CNc1nccc2cc(C(=O)Nc3ccc(C(=O)O)cc3)c(=O)[nH]c12 [Example 17, 4-[[8-(Methylamino)-2-oxo-1,2-dihydro-1,7-naphthyridine-3-carbonyl]amino]benzoic Acid]
- MIC [1]: > 1 µg/mL
- pIC50 (E. coli DNA gyrase; [2]): 6.53
- MIC (E. Coli ATCC 25922): > 64 µg/mL

Structure (SMILES): CNc1cccc2cc(C(=O)Nc3ccc(-c4noc(=O)[nH]4)cc3)c(=O)[nH]c12 [Example 18, 8-(methylamino)-2-oxo-N-[4-(5-oxo-4,5-dihydro-1,2,4-oxadiazole-3-yl)phenyl]-1,2-dihydroquinoline-3-carboxamide]
- MIC [1]: 0.25 µg/mL (≈ 0.662 µM)
- pIC50 (E. coli DNA gyrase; [2]): 7.81
- MIC (E. Coli ATCC 25922): > 0.5 µg/mL

Structure (SMILES): CNc1cccc2cc(C(=O)OCc3ccncc3N)c(=O)[nH]c12 [Example 19, (3-aminopyridine-4-yl)methyl 8-(methyl-amino)-2-oxo-1,2-dihydroquinoline-3-carboxylate]
- MIC [1]: > 4 µg/mL
- pIC50 (E. coli DNA gyrase; [2]): 6.37
- MIC (E. Coli ATCC 25922): > 16 µg/mL

Structure (SMILES): CN=S(C)(=O)c1ccc(NC(=O)c2cc3cccc(NC)c3[nH]c2=O)cc1 (stereo not drawn) [Example 22, N-[4-(N,S-dimethane-sulfonimidoyl)phenyl]-8-(methylamino)-2-oxo-1,2-dihydroquinoline-3-carboxamide]
- MIC [1]: > 4 µg/mL
- pIC50 (E. coli DNA gyrase; [2]): 6.76
- MIC (E. Coli ATCC 25922): > 8 µg/mL

Structure (SMILES): CNc1cccc2cc(C(=O)Nc3cnc(N4CCN(C)CC4)nc3)c(=O)[nH]c12 [Example 28, 8-(methylamino)-N-[2-(4 methylpiperazine-1-yl)pyrimidine-5-yl]-2-oxo-1,2-dihydroquinoline-3-carboxamide]
- MIC [1]: > 4 µg/mL
- pIC50 (E. coli DNA gyrase; [2]): 7.49
- MIC (E. Coli ATCC 25922): > 16 µg/mL

Structure (SMILES): CNc1cccc2cc(C(=O)NCCc3cn4cccnc4n3)c(=O)[nH]c12 [Example 29, N-[2-(imidazo [1,2-a]pyrimidine-2-yl)ethyl]-8-(methylamino)-2-oxo-1,2-dihydroquinoline-3-carboxamide]
- MIC [1]: > 4 µg/mL
- pIC50 (E. coli DNA gyrase; [2]): 7.55
- MIC (E. Coli ATCC 25922): > 64 µg/mL

Structure (SMILES): CNc1cc(F)cc2cc(C(=O)Nc3cncnc3)c(=O)[nH]c12 [Example 50, 6-fluoro-8-(methylamino)-2-oxo-N-(pyrimidine-5-yl)-1,2-dihydroquinoline-3-carboxamide]
- MIC [1]: 0.06 µg/mL (≈ 0.192 µM)
- pIC50 (E. coli DNA gyrase; [2]): 8.73
- MIC (E. Coli ATCC 25922): > 8 µg/mL

Structure (SMILES): CNc1cc(F)cc2cc(C(=O)Nc3ccc(C(=O)O)c(OCCN4CCN(C)CC4)c3)c(=O)[nH]c12 [Example 54, 4-{[6-fluoro-8-(methylamino)-2-oxo-1,2-dihydroquinoline-3-carbonyl]amino}-2-[2-(4-methylpiperazine-1-yl)ethoxy] benzoic acid-hydrochloride]
- MIC [1]: 1 µg/mL
- pIC50 (E. coli DNA gyrase; [2]): 8.72
- MIC (E. Coli ATCC 25922): > 16 µg/mL

Structure (SMILES): CNc1cc(F)cc2cc(C(=O)N(C)c3ccc(C(=O)O)cc3)c(=O)[nH]c12 [Example 56, 4-{[6-fluoro-8-(methylamino)-2-oxo-1,2-dihydroquinoline-3-carbonyl] (melhyl)amino} benzoic acid]
- MIC [1]: 0.12 µg/mL (≈ 0.325 µM)
- pIC50 (E. coli DNA gyrase): 7.74
- MIC (E. Coli ATCC 25922): > 64 µg/mL

Structure (SMILES): CNc1cc(F)cc2cc(C(=O)Nc3ccc(C(=O)O)c(O)c3)c(=O)[nH]c12 [Example 58, 4-{[6-fluoro-8-(methylamino)-2-oxo-1,2-dihydroquinoline-3-carbonyl]amino}-2-hydroxybenzoic acid]
- MIC [1]: 0.12 µg/mL (≈ 0.323 µM)
- pIC50 (E. coli DNA gyrase; [2]): 8.69
- MIC (E. Coli ATCC 25922): > 32 µg/mL

Structure (SMILES): CNc1cc(F)cc2cc(C(=O)Nc3ccc(C(=O)O)c(OCCCN)c3)c(=O)[nH]c12.O=CO [Example 62, 2-(3-Aminopropoxy)-4-[[6-fluoro-8-(methylamino)-2-oxo-1,2-dihydroquinoline-3-carbonyl]amino]benzoic acid-formate]
- MIC [1]: 2 µg/mL
- pIC50 (E. coli DNA gyrase): 9.04
- MIC (E. Coli ATCC 25922): > 16 µg/mL

Structure (SMILES): CNc1cc(F)cc2cc(C(=O)NCCc3cccc(C(=O)O)c3)c(=O)[nH]c12 [Example 66, 3-(2-{[6-fluoro-8-(methylamino)-2-oxo-1,2-dihydroquinoline-3-carbonyl]amino}ethyl) benzoic acid]
- MIC [1]: 0.25 µg/mL (≈ 0.652 µM)
- pIC50 (E. coli DNA gyrase; [2]): 9.02
- MIC (E. Coli ATCC 25922): > 32 µg/mL

Structure (SMILES): CNc1cc(F)cc2cc(C(=O)Nc3cnc(C(=O)NCCO)nc3)c(=O)[nH]c12 [Example 71, 6-Fluoro-N-[2-[(2-hydroxyethyl)carbamoyl]pyrimidin-5-yl]-8-(methylamino)-2-oxo-1,2-dihydroquinoline-3-carboxamide]
- pIC50 (E. coli DNA gyrase; [2]): 9.06
- MIC (E. Coli ATCC 25922): > 8 µg/mL

Structure (SMILES): CNc1cc(F)cc2cc(C(=O)Nc3cccnc3)c(=O)[nH]c12 [Example 72, 6-fluoro-8-(methylamino)-2-oxo-N-(pyridine-3-yl)-1,2-dihydroquinoline-3-carboxamide]
- MIC [1]: 0.12 µg/mL (≈ 0.384 µM)
- pIC50 (E. coli DNA gyrase; [2]): 8.10
- MIC (E. Coli ATCC 25922): > 4 µg/mL

Structure (SMILES): CNc1cc(F)cc2cc(C(=O)Nc3cnccc3C)c(=O)[nH]c12 [Example 73, 6-fluoro-8-(methylamino)-N-(4-methylpyridine-3-yl)-2-oxo-1,2-dihydroquinoline-3-carboxamide]
- pIC50 (E. coli DNA gyrase; [2]): 7.64
- MIC (E. Coli ATCC 25922): > 8 µg/mL

Structure (SMILES): CNc1cc(F)cc2cc(C(=O)Nc3ccc(C(=O)O)cc3CNCCO)c(=O)[nH]c12 [Example 74, 4-{[6-fluoro-8-(methylamino)-2-oxo-1,2-dihydroquinoline-3-catbonyl]amino}-3-{[(2-hydroxyethyl)amino]methyl} benzoic acid-hydrochloride]
- pIC50 (E. coli DNA gyrase; [2]): 6.89
- MIC (E. Coli ATCC 25922): > 64 µg/mL

Structure (SMILES): CNc1cc(F)cc2cc(C(=O)Nc3ccc(C(=O)NCCN4CCOCC4)cc3CN(C)C3CCCCC3)c(=O)[nH]c12 [Example 75, N-(2-{[cyclohexyl(methyl)amino]methyl}-4-{[2-(morpholine-4-yl)ethyl]carbamoyl}phenyl)-6-fluoro-8-(methylamino)-2-oxo-1,2-dihydroquinoline-3-carboxamide]
- pIC50 (E. coli DNA gyrase; [2]): 9.60
- MIC (E. Coli ATCC 25922): 8 µg/mL (≈ 13.5 µM)

Structure (SMILES): CNc1cc(F)cc2cc(C(=O)Nc3ccccc3)c(=O)[nH]c12 [Example 76, 6-fluoro-8-(methylamino)-2-oxo-N-phenyl-1,2-dihydroquinoline-3-carboxamide]
- MIC [1]: 0.25 µg/mL (≈ 0.803 µM)
- pIC50 (E. coli DNA gyrase; [2]): 6.60
- MIC (E. Coli ATCC 25922): > 32 µg/mL

Structure (SMILES): CNc1cc(F)cc2cc(C(=O)OCc3ccncc3N)c(=O)[nH]c12 [Example 77, (3-aminopyridine-4-yl)methyl 6-fluoro-8-(methylamino)-2-oxo-1,2-dihydroquinoline-3-carboxylate]
- MIC [1]: 1 µg/mL (≈ 2.92 µM)
- pIC50 (E. coli DNA gyrase; [2]): 7.61
- MIC (E. Coli ATCC 25922): > 16 µg/mL

Structure (SMILES): CNc1cc(F)cc2cc(C(=O)Nc3cnc(OCCN4CCOCC4)nc3)c(=O)[nH]c12 [Example 80, 6-fluoro-8-(methylamino)-N-{2-[2-(morpholine-4-yl)ethoxy]pyrimidine-5-yl}-2-oxo-1,2-dihydroquinoline-3-carboxamide]
- pIC50 (E. coli DNA gyrase; [2]): 8.60
- MIC (E. Coli ATCC 25922): > 16 µg/mL

Source: US20210070747A1, “2(1H)-QUINOLINONE DERIVATIVE” (priority 2017, published 2021)
